Results on five sequences are retold here after patent US8252764B2, “Compositions and methods of use of targeting peptides against placenta and adipose tissues” (priority 2000, dated 2012).

The target in assay [1] is T1, β3 integrin cytoplasmic domain (Homo sapiens, UniProt P05106).
T1 sequence (P05106 742-788 limits assumed): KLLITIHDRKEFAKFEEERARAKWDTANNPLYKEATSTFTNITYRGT
The experiment in a line: Phage binding to immobilized GST-β3cyto. The method, then: FIG. 18. Binding of β3 cytoplasmic domain-selected phage to immobilized proteins. GST fusion proteins or GST alone were coated on microtiter wells at 10 μg/ml and used to bind phage-expressing endostatin targeting peptides. […] The data represent the mean colony counts from triplicate wells, with standard error of less than 10% of the mean.
β3 and β5 cytoplasmic domain-binding peptides were isolated by screening multiple phage libraries with recombinant GST fusion proteins that contained either GST-β3cyto or GST-β5cyto coated onto microtiter wells. Immobilized GST was used as a negative control for enrichment during the panning of each cytoplasmic domain. Phage were sequenced from randomly selected clones after three rounds of panning as disclosed elsewhere (Koivunen et al., Biotechnology 13:265-270, 1995; Pasqualini et al., 1995). Distinct sequences were isolated that interacted specifically with the β3 or with the β5 cytoplasmic domains (Table 4). Randomly selected clones from panning rounds II and III were sequenced. […] The ratios were calculated by dividing the number of colonies recovered from β3-GST-coated wells and those recovered from GST or BSA.
The specificity of the interaction with β3 or β5 cytoplasmic domains was determined by calculating the ratios of phage bound to the cytoplasmic domain containing-fusion proteins (β3 or β5) versus GST alone (negative control). […]

Assay [2] addresses T2, β5 integrin cytoplasmic domain (Homo sapiens, UniProt P18084).
T2 construct: screenings involving the β5 cytoplasmic domain fusion protein
T2 sequence (P18084 743-799 limits assumed): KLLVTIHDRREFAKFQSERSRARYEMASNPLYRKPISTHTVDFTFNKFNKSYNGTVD
The experiment in a line: Phage binding to immobilized GST-β5cyto. The following applies: phage colonies. The method, then:
FIG. 19. Binding of β5 cytoplasmic domain-selected phage to immobilized proteins. GST fusion proteins or GST alone were coated on microtiter wells at 10 μg/ml and used to bind phage-expressing endostatin binding peptides. […] The data represent the mean colony counts from triplicate wells, with standard error less than 10% of the mean.
β3 and β5 cytoplasmic domain-binding peptides were isolated by screening multiple phage libraries with recombinant GST fusion proteins that contained either GST-β3cyto or GST-β5cyto coated onto microtiter wells. Immobilized GST was used as a negative control for enrichment during the panning of each cytoplasmic domain. Phage were sequenced from randomly selected clones after three rounds of panning as disclosed elsewhere (Koivunen et al., Biotechnology 13:265-270, 1995; Pasqualini et al., 1995). Distinct sequences were isolated that interacted specifically with the β3 or with the β5 cytoplasmic domains (Table 4). Randomly selected clones from panning rounds II and III were sequenced. Amino acid sequences of the phagemid encoded peptides were deduced from nucleotide sequences. The ratios were calculated by dividing the number of colonies recovered from β3-GST-coated wells and those recovered from GST or BSA.
A similar strategy was used to determine the specificity of the phage isolated in the screenings involving the β5 cytoplasmic domain fusion protein.

The subject of assay [3] is HUVECs. Put plainly: Three-dimensional cell culture on Matrigel. The assay is classed as cell-based, human. The note with it: HUVECs on three-dimensional matrix gel, not shown. The method, then: Matrigel (Collaborative Research, Bedford, Mass.) was added at 100 μl per well to 48-well tissue culture plates and allowed to solidify for 10 min at 37° C. HUVECs were starved for 24 h in M199 medium supplemented with 2% FCS before being harvested in PBS containing 2.5 mM EDTA. 10^4 cells were gently added to each of the triplicate wells and allowed to adhere to the gel coating for 30 min at 37° C. Then, medium was replaced with indicated concentrations of […] (SEQ ID NO:56) or […] (SEQ ID NO:57) peptides in complete medium. The plates were photographed after 24 h with an inverted microscope (Canon). The assay was repeated three times.

The subject of a further assay is SK-RC-49/APA cells. Put plainly: Phage binding specificity assay on SK-RC-49/APA cells. The note with it: soluble peptide, not shown. The assay is classed as cell-based. The method, then:
The cell binding assay was performed with an input of 10^9 TU as described for the cell panning. The specificity was confirmed by adding […] (SEQ ID NO:56) peptide to the binding medium in increasing concentrations. For phage binding on immunocaptured APA, wells were blocked for 1 h at room temperature with PBS/3% BSA and incubated with 10^9 TU for 1 h at room temperature in 50 μl PBS/3% BSA. After eight washes in PBS/1% BSA/0.01% Tween-20 and two washes in PBS, phage were rescued by adding 200 μl of exponentially growing K91Kan E. coli. Each experiment was repeated at least three times.

Assay [4] has as its system HUVECs. Put plainly: HUVEC chemotaxis assay (Boyden chamber). The assay is classed as cell-based, human. The note with it: HUVECs, VEGF-A, not shown. The method, then: FIG. 33. […] (SEQ ID NO:56) inhibits HUVEC migration. HUVECs were stimulated with VEGF-A (10 ng/ml). The assay was performed in a Boyden microchemotaxis chamber, and cells were allowed to migrate through an 8-μm pore filter for 5 h at 37° C. […] (SEQ ID NO:57) (control) and […] (SEQ ID NO:56) peptides were tested at 1 mM concentration. Migrated cells were stained and five high-power fields (magnitude 100×) for each microwell were counted. Error bars are the standard error of the means of triplicate microwells.
A cell migration assay was performed in a 48-well microchemotaxis chamber (NeuroProbe, Gaithersburg, Md.) according to Bussolini et al. (1995). Polyvinylpyrrolidone-free polycarbonate filters (Nucleopore, Cambridge, Mass.) with 8-μm pores were coated with 1% gelatin for 10 min at room temperature and equilibrated in M199 medium supplemented with 2% FCS. […] (SEQ ID NO:56) or control […] (SEQ ID NO:57) peptide (1 mM) was placed in the lower compartment of a Boyden chamber in M199 medium supplemented with 2% FCS and 10 ng/ml VEGF-A (R&D System). Subconfluent cultures that had been starved overnight were harvested in PBS containing 2.5 mM EDTA, washed once in PBS, and resuspended in M199 medium containing 2% FCS at a final concentration of 2×10^6 cells/ml. […] Five random high-power fields (magnitude 100×) were counted in each well. […]

The test system of assay [5] is chicken chorioallantoic membrane (CAM). The experiment in a line: CAM assay for angiogenesis. The assay is classed as in vivo. The method, then:
In vivo angiogenesis was evaluated by a CAM assay (Ribatti et al., 1994). Fertilized eggs from White Leghorn chickens were maintained in constant humidity at 37° C. On the third day of incubation, a square window was opened in the eggshell and 2-3 ml of albumen was removed to detach the developing CAM from the shell. The window was sealed with a glass plate of the same size and the eggs were returned to the incubator. At day 8, 1 mm^3 sterilized gelatin sponges (Gelfoam, Upjohn Co, Kalamazoo, […]) were adsorbed with VEGF-A (20 ng, R&D System) and either […] (SEQ ID NO:56) or control […] (SEQ ID NO:57) peptide (1 mM) in 3 μl PBS and implanted on the top of the growing CAMs under sterile conditions. CAMs were examined daily until day 12 and photographed in ovo with a Leica stereomicroscope. Capillaries emerging from the sponge were counted. The assay was repeated twice.

In the next assay the test system is endothelial cells. The experiment in a line: Endothelial cell migration (chemotaxis) assay with penetratin peptide chimeras. The assay is classed as cell-based, human. The note with it: 48-well microchemotaxis chamber. The method, then:
FIG. 25. Effect of penetratin peptide chimeras on endothelial cell migration. Cell migration assay were performed, in a 48-well microchemotaxis chamber. Five random high-power fields (magnitude 40×) were counted in each well.
Cell migration assays were performed as follows: 48-well microchemotaxis chambers were used. Polyvinylpyrrolidone-free polycarbonate filters (Nucleopore, Cambridge, Mass.) with 8-μm pores were coated with 1% gelatin for 10 min at room temperature and equilibrated in M199 medium supplemented with 2% FCS. Peptides were placed in the lower compartment of a Boyden chamber in M199 supplemented with 2% FCS, 20 ng/ml VEGF-A (R&D System), and 1 U/ml heparin. Overnight-starved subconfluent cultures were quickly trypsinized, and resuspended in M199 containing 2% FCS at a final concentration of 2×10^6 cells/ml. After the filter was placed between lower and upper chambers, 50 μl of the cell suspension was seeded in the upper compartment. Cells were allowed to migrate for 5 h at 37° C. in a humidified atmosphere with 5% CO2. The filter was then removed, and cells on the upper side were scraped with a rubber policeman. […] Five random high-power fields (magnitude 40×) were counted in each well.
Cell migration was assayed in a 48-well microchemotaxis chamber. […] Five random high-power fields (magnitude 40×) were counted in each well.

In the case of AGWLYMSWK, the “β3/BSA Ratio” value in assay [1] (phage colonies recovered from β3-GST-coated wells divided by BSA) is reported as 2.4. Moreover, the “β3/GST Ratio” value in assay [1] (phage colonies recovered from β3-GST-coated wells divided by GST) was determined as 1.8.

Turning to CKLWQEDGY, the “β5/BSA Ratio” value in assay [2] (β5 versus BSA) came to 665. The “β5/GST Ratio” value in assay [2] (β5 versus GST) came out at 1.8.

In the case of GACVRLSACGA [reference compound], the “formation of capillary-like network” value with HUVECs [3] is recorded as “did not affect HUVEC morphogenesis”. Further, the “competition with CPKVCPRECESNC phage for binding to SK-RC-49/APA cells” value in the assay on SK-RC-49/APA cells is “no competitive activity”. Besides, the “effect on cell migration or proliferation” value in the assay on HUVECs [4] is on record as “no significant effect on cell migration or proliferation”. For the same sequence, the “BLOOD VESSEL NUMBERS” value in assay [5] (VEGF-A 20 ng, peptide 1 mM, mean and standard error, two experiments) is 56.5 ± 2.12. Also, the “effect on the number of growing vessels” value in assay [5] (not shown) is given as “no effect on the number of growing vessels”.

For GLDTYRGSP, the “effect on endothelial cell migration” value in the assay with endothelial cells is recorded as “increase cell migration”.

As for SDNRYIGSW, in the assay on endothelial cells, the “effect on endothelial cell migration” value is listed as “increase cell migration”.
